Columns and labels:
various enzymes [1] = target: T1, various enzymes (Homo sapiens, UniProt O75385); settings: ULK1; 1 uM
T1 sequence (O75385 1-1050): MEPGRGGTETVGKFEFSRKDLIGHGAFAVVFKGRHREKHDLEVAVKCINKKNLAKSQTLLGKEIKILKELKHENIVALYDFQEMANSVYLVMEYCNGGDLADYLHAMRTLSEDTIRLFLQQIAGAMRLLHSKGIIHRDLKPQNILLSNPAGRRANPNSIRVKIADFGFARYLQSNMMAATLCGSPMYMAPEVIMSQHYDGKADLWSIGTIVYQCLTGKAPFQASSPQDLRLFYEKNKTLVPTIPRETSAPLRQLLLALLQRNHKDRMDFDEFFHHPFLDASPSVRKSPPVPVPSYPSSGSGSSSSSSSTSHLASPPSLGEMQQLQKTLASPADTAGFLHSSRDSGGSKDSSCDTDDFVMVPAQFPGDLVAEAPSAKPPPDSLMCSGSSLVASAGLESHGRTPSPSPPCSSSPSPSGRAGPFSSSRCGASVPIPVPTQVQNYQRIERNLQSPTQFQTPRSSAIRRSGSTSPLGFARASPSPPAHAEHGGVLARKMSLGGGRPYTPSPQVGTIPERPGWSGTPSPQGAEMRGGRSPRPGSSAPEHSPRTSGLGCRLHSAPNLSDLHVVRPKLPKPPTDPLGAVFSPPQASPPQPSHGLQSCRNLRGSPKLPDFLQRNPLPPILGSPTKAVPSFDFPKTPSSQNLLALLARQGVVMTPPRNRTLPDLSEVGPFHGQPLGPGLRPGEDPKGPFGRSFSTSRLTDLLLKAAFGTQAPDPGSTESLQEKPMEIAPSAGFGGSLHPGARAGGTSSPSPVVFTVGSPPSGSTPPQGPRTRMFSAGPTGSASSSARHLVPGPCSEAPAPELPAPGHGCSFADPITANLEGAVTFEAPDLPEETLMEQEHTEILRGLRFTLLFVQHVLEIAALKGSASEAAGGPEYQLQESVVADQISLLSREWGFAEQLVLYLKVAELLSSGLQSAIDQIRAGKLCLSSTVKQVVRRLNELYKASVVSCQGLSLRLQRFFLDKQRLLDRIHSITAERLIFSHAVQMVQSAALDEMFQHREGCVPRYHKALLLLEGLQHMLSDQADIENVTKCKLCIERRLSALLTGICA
Protocol: (§1) Ambit profiling from Eurofins (formerly Discoverx) was conducted in accordance with the manufacturer's instructions.

various enzymes [2] = target: T2, various enzymes (Homo sapiens, UniProt P36888); settings: FLT3(ITD); 1 uM
T2 sequence (P36888 1-993): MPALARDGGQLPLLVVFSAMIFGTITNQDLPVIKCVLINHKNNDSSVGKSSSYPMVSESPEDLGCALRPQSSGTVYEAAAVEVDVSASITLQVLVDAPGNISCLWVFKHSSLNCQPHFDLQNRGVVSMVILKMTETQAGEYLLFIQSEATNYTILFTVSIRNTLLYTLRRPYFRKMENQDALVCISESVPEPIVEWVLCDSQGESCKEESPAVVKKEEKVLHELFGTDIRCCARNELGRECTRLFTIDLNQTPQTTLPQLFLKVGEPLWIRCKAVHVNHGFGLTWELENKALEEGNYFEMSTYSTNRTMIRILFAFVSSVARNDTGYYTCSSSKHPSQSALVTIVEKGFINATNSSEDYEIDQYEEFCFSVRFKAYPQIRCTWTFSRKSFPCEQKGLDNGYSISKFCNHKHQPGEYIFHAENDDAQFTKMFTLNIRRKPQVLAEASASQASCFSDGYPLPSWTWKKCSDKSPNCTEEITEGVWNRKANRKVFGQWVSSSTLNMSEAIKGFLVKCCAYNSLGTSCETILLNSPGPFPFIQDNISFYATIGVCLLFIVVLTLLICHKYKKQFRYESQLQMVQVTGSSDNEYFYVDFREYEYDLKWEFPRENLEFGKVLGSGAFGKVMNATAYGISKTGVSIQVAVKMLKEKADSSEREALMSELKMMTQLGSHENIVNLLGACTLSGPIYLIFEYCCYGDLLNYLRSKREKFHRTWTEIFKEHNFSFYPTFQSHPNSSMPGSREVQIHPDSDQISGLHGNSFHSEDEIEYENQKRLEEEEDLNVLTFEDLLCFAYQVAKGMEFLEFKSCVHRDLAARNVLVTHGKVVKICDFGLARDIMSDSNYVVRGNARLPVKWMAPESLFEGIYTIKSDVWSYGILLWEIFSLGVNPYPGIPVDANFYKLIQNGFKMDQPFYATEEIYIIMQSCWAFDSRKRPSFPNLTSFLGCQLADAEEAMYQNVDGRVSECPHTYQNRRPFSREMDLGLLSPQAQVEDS
Protocol: as §1

various enzymes [3] = target: T3, various enzymes (Homo sapiens, UniProt Q13873); settings: BMPR2; 1 uM
T3 sequence (Q13873 27-1038): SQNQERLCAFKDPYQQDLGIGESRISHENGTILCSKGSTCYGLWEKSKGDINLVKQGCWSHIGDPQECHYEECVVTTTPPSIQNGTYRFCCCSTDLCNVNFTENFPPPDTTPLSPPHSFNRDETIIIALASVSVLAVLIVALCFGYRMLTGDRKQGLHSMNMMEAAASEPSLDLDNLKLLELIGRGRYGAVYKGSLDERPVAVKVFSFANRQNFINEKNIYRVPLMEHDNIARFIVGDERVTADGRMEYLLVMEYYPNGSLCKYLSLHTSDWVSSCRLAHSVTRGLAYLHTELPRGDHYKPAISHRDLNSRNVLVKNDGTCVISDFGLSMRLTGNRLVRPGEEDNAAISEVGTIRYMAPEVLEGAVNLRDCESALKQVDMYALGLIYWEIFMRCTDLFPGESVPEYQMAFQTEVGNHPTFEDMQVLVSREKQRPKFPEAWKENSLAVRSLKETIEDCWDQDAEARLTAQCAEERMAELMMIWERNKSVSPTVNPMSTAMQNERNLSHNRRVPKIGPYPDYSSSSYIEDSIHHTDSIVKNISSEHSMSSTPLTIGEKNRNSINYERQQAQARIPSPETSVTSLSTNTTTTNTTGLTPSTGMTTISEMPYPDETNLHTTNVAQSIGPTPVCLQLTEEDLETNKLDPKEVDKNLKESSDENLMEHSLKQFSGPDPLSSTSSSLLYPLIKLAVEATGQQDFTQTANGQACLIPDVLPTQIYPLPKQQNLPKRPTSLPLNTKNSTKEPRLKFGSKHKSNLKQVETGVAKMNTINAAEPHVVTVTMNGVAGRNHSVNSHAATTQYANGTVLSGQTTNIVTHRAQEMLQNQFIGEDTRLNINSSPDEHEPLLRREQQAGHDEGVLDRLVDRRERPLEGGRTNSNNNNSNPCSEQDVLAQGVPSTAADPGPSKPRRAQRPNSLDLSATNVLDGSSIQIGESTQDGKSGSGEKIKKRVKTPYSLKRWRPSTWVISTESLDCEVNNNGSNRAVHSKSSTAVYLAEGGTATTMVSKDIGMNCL
Protocol: as §1

Structure (SMILES)	Ambit profiling (various enzymes [1])	Ambit profiling (various enzymes [2])	Ambit profiling (various enzymes [3])
CN1Cc2nn(C)cc2-c2cnc3[nH]cc(c3c2)-c2cnn(c2)CCCC1=O [Compound 41, (Z)-31,5-dimethyl-11H,21H,31H-5-aza-2(3,5)-pyrrolo[2,3-b]pyridina-1(4,1),3(4,3)-dipyrazolacyclononaphan-6-one]	22	0.15	4.1
CN1Cc2nn(C)c(C#N)c2-c2cnc3[nH]cc(c3c2)-c2cn(nc2C(F)(F)F)CCCC1=O [Compound 48, (Z)-31,5-dimethyl-6-oxo-13-(trifluoromethyl)-11H,21H,31H-5-aza-2(3,5)-pyrrolo[2,3-b]pyridina-1(4,1),3(4,3)-dipyrazolacyclononaphane-35-carbonitrile]	100	21	85

— patent US12157741B2, “Macrocyclic inhibitors of DYRK1A” (DANA-FARBER CANCER INSTITUTE, INC., priority 2018, dated 2024)
